Laboratory results from ChEMBL document CHEMBL1212936, “Discovery of 2-[1-(4-chlorophenyl)cyclopropyl]-3-hydroxy-8-(trifluoromethyl)quinoline-4-carboxylic acid (PSI-421), a P-selectin inhibitor with improved pharmacokinetic properties and oral efficacy in models of vascular injury” (J Med Chem, 2010).
Converted amounts (≈) assume the structure as drawn.

Key:
[1] = target: T1, P-selectin glycoprotein ligand 1 (Homo sapiens) (UniProt Q14242); assay: Inhibition of recombinant PSGL-1 at 250 uM by surface plasmon resonance assay
T1 sequence (whole entry): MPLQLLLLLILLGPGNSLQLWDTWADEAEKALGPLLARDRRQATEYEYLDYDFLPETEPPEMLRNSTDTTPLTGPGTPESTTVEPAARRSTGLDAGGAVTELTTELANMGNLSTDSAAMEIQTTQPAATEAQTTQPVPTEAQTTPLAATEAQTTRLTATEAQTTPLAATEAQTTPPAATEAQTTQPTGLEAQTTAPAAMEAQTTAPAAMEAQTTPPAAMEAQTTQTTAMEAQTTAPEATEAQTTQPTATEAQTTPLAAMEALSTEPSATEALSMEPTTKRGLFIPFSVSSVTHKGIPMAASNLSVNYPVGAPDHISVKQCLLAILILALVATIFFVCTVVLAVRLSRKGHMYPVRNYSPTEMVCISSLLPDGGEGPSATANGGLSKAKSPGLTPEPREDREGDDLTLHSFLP

CYP2C9 = CYP2C9 (Homo sapiens, UniProt P11712); assay: Inhibition of CYP2C9 at 3 uM; assay type: ADME
[2] = Aqueous solubility of the compound at pH 6.6; assay type: physicochemical; details: aqueous solution
Rattus norvegicus = assay: Dose normalized AUC in Sprague-Dawley rat measured per mg of plasma at 3 mg/kg, iv and 10 mg/kg, po; assay type: ADME, organism-based; details: in vivo
[3] = Oral bioavailability in Sprague-Dawley rat at 10 mg/kg; assay type: ADME, organism-based; details: in vivo
[4] = Clearance in Sprague-Dawley rat at 3 mg/kg, iv and 10 mg/kg, po; assay type: ADME, organism-based; details: in vivo
Mus musculus = assay: Reduction of leukocytes rolling flux in acute intravital microscopy model of C57B6 mouse cremasteric postcapillary venules at 50 mg/kg, po after 35 mins relative to control; assay type: functional; set-up: scale not given: the % may be the effect or the level left

Sequence of CYP2C9 (P11712 whole entry): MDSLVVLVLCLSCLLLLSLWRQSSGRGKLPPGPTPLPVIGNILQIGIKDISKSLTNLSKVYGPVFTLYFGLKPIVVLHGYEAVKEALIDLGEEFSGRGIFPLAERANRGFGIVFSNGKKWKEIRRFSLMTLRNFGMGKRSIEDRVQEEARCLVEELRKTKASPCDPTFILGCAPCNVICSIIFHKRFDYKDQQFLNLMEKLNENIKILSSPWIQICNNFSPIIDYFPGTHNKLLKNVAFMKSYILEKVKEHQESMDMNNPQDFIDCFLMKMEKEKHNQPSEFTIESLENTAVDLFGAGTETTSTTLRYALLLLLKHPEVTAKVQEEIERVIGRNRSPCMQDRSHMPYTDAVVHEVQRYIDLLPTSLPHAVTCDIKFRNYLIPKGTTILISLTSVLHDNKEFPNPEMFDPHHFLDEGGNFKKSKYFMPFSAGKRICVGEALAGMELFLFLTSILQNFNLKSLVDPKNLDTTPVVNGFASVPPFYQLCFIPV

Compound | inhibition [1] | inhibition at 3 µM (CYP2C9) | solubility [2] | AUC (Rattus norvegicus) | bioavailability [3] | clearance [4] | Activity (Mus musculus)
Cc1cc(C(F)(F)F)c2nc(C3(c4ccc(Cl)cc4)CC3)c(O)c(C(=O)O)c2c1 | 65% | 72% | – | – | – | – | –
CCc1cc(C(F)(F)F)c2nc(C3(c4ccc(Cl)cc4)CC3)c(O)c(C(=O)O)c2c1 | < 10% | 81% | – | – | – | – | –
Cc1ccc(C2(c3nc4c(C)c(C)ccc4c(C(=O)O)c3O)CC2)cc1 | 24% | 47% | – | – | – | – | –
CCc1cc(C(F)(F)F)cc2c(C(=O)O)c(O)c(C3(c4ccc(Cl)cc4)CC3)nc12 | < 10% | 43% | – | – | – | – | –
O=C(O)c1c(O)c(C2(c3ccc(Cl)cc3)CC2)nc2c(C(F)(F)F)cc(Br)cc12 | < 10% | 65% | – | – | – | – | –
Cc1cc(C(F)(F)F)cc2c(C(=O)O)c(O)c(C3(c4ccc(Cl)cc4)CC3)nc12 | 40% | 42% | – | – | – | – | –
Cc1ccc(C2(c3nc4c(C)cc(C)cc4c(C(=O)O)c3O)CC2)cc1 | 11% | 55% | – | – | – | – | –
CCc1cccc2c(C(=O)O)c(O)c(C3(c4ccc(C(F)(F)F)cc4)CC3)nc12 | – | – | 250 µg/mL (≈ 623 µM) | 2428 ng·h/mL | 100% | 9.4 mL/min/kg | –
Cc1cc(C)c2nc(C3(c4ccccc4)CC3)c(O)c(C(=O)O)c2c1 | 20% | 54% | – | – | – | – | –
CC(C)c1cccc2c(C(=O)O)c(O)c(C3(c4ccc(F)cc4)CC3)nc12 | – | – | 2500 µg/mL (≈ 6840 µM) | 1263 ng·h/mL | 65% | 8.7 mL/min/kg | –
Cc1ccc2c(C(=O)O)c(O)c(C3(c4ccc(Cl)cc4)CC3)nc2c1C | – | – | 190 µg/mL (≈ 517 µM) | 1735 ng·h/mL | 75% | 7 mL/min/kg | –

Further lines, with some results ahead:

inhibition [1] | inhibition at 3 µM (CYP2C9) | solubility [2] | AUC (Rattus norvegicus) | bioavailability [3] | clearance [4] | Compound | Activity (Mus musculus)
35% | – | 700 µg/mL (≈ 1880 µM) | 340 ng·h/mL | 49% | 28 mL/min/kg | O=C(O)c1c(O)c(C2Cc3ccccc3C2)nc2c(C(F)(F)F)cccc12 | –
46% | – | 680 µg/mL (≈ 1810 µM) | – | – | – | CC(Cc1nc2c(C(F)(F)F)cccc2c(C(=O)O)c1O)c1ccccc1 (configuration not stated) | –
26% | – | – | – | – | – | COc1ccc(C2(c3nc4c(C(F)(F)F)cccc4c(C(=O)O)c3O)CC2)cc1 | –
– | – | 1500 µg/mL (≈ 3180 µM) | 5035 ng·h/mL | 44% | 1 mL/min/kg | O=C(O)c1c(O)c(C2(c3ccccc3)CC2)nc2c(C(O)(C(F)(F)F)C(F)(F)F)cccc12 | 60%
0% | – | – | – | – | – | O=C(O)c1c(O)c(C2(c3ccc(Cl)cc3)CCC2)nc2c(C(F)(F)F)cccc12 | –
55% | – | 600 µg/mL (≈ 1600 µM) | – | – | – | CCC(c1ccccc1)c1nc2c(C(F)(F)F)cccc2c(C(=O)O)c1O (configuration not stated) | –
49% | – | 1550 µg/mL (≈ 4130 µM) | – | – | – | CC(Cc1ccccc1)c1nc2c(C(F)(F)F)cccc2c(C(=O)O)c1O (configuration not stated) | –
44% | – | 2100 µg/mL (≈ 5630 µM) | – | – | – | O=C(O)c1c(O)c(C2(c3ccccc3)CC2)nc2c(C(F)(F)F)cccc12 | –
47% | – | 200 µg/mL (≈ 453 µM) | 13800 ng·h/mL | 31% | 0.4 mL/min/kg | O=C(O)c1c(O)c(C2(c3ccc(C(F)(F)F)cc3)CC2)nc2c(C(F)(F)F)cccc12 | –
< 10% | – | – | – | – | – | CC(C)C(c1ccc(Cl)cc1)c1nc2c(C(F)(F)F)cccc2c(C(=O)O)c1O (configuration not stated) | –
50% | – | 1550 µg/mL (≈ 4290 µM) | – | – | – | CC(c1ccccc1)c1nc2c(C(F)(F)F)cccc2c(C(=O)O)c1O (configuration not stated) | –
7% | – | – | – | – | – | O=C(O)c1c(O)c(C2(c3ccsc3)CC2)nc2c(C(F)(F)F)cccc12 | –
